According to US10245246B2, “β-substituted β-amino acids and analogs as chemotherapeutic agents” (QUADRIGA BIOSCIENCES, INC., priority 2014, dated 2019):

Columns and labels:
[1] = system: LLCPK cells conditionally expressing hLAT1; assay type: cell-based
B16 melanoma cells = assay: In vivo tumor growth suppression, B16 efficacy model; conditions: C57BL/6 mice, s.c. B16 melanoma, dosed IP daily for 12 days; test compound 5 and 10 mg/kg, melphalan 2.5 mg/kg

Question: What does the source list for N[C@@H](Cc1ccc(N(CCCl)CCCl)cc1)C(=O)O [Melphalan]?
Answer: percent surviving cells in cells expressing LAT1 compared to cells not expressing LAT1 (reduction) [1]: about the same; Tumor Growth (% Control), 5 days post-dosing (B16 melanoma cells): 56 % Control; Tumor Growth (% Control), End of dosing (B16 melanoma cells): 33 % Control
